In USRE48461E1, “Modulation of androgen receptor expression” (Ionis Pharmaceuticals, Inc., priority 2012, dated 2021):
Oligonucleotides are written 5' to 3', each unit as a sugar letter and its base; * is a phosphorothioate linkage, no mark a phosphodiester; rarer units and linkages stand in square brackets, end groups in braces. Plain capitals give the bases only. e = 2'-O-(2-methoxyethyl) (MOE); k = constrained ethyl (cEt); [5mC] = 5-methylcytosine; d = 2'-deoxy (DNA)

Columns and labels:
[1] = tested on: AR mRNA; experiment: Antisense inhibition of human AR in HuVEC cells, single concentration (electroporation, qRT-PCR RTS3559); assay type: cell-based; settings: 500 nM ASO, electroporation, ~24 h, Table 1
Method: Antisense oligonucleotides were designed targeting an AR nucleic acid and were tested for their effects on AR mRNA in vitro. The antisense oligonucleotides were tested in a series of experiments that had similar culture conditions. […] Human primer probe set RTS3559 (forward sequence [NT], designated herein as SEQ ID NO: 9; reverse sequence [NT], designated herein as SEQ ID NO: 10; probe sequence [NT], designated herein as SEQ ID NO: 11) was used to measure mRNA levels. AR mRNA levels were adjusted according to total RNA content, as measured by RIBOGREEN®. […] A total of 155 oligonucleotides were tested. Additional antisense oligonucleotides were designed targeting an AR nucleic acid and were tested for their effects on AR mRNA in vitro. […] Human primer probe set RTS3559 was used to measure mRNA levels. AR mRNA levels were adjusted according to total RNA content, as measured by RIBOGREEN®. […] A total of 82 oligonucleotides were tested. Additional antisense oligonucleotides were designed targeting an AR nucleic acid and were tested for their effects on AR mRNA in vitro. […] Human primer probe set RTS3559 was used to measure mRNA levels. AR mRNA levels were adjusted according to total RNA content, as measured by RIBOGREEN®. […] A total of 40 oligonucleotides were tested. Additional antisense oligonucleotides were designed targeting an AR nucleic acid and were tested for their effects on AR mRNA in vitro. […] Human primer probe set RTS3559 was used to measure mRNA levels. AR mRNA levels were adjusted according to total RNA content, as measured by RIBOGREEN®. […] A total of 75 oligonucleotides were tested. Additional antisense oligonucleotides were designed targeting an AR nucleic acid and were tested for their effects on AR mRNA in vitro. […] Human primer probe set RTS3559 was used to measure mRNA levels. AR mRNA levels were adjusted according to total RNA content, as measured by RIBOGREEN®. […] A total of 616 oligonucleotides were tested. Additional antisense oligonucleotides were designed targeting an AR nucleic acid and were tested for their effects on AR mRNA in vitro. […] Human primer probe set RTS3559 was used to measure mRNA levels. AR mRNA levels were adjusted according to total RNA content, as measured by RIBOGREEN®. […] A total of 385 oligonucleotides were tested.

[2] = tested on: AR mRNA; experiment: Dose-dependent antisense inhibition of human AR in HuVEC cells (electroporation, qRT-PCR RTS3559, IC50); assay type: cell-based; settings: HuVEC, ~16 h
Method: (§1) After a treatment period of approximately 16 hours, RNA was isolated from the cells and AR mRNA levels were measured by quantitative real-time PCR. Human AR primer probe set RTS3559 was used to measure mRNA levels. AR mRNA levels were adjusted according to total RNA content, as measured by RIBOGREEN®. […] The antisense oligonucleotides were tested in a series of experiments that had similar culture conditions.
as §1, §1, §1, §1
(§2) After a treatment period of approximately 16 hours, RNA was isolated from the cells and AR mRNA levels were measured by quantitative real-time PCR. Human AR primer probe set RTS3559 was used to measure mRNA levels. AR mRNA levels were adjusted according to total RNA content, as measured by RIBOGREEN®.
as §2

Row | Substance | % inhibition [1] [%] | percent inhibition of AR ([2]; 55.6 nM, Table 4) [%] | percent inhibition of AR ([2]; 166.7 nM, Table 4) [%] | percent inhibition of AR ([2]; 500.0 nM, Table 4) [%] | percent inhibition of AR ([2]; 1500.0 nM, Table 4) [%] | IC50 ([2]; Table 4) [nM] | percent inhibition of AR ([2]; 55.6 nM, Table 3) [%] | percent inhibition of AR ([2]; 166.7 nM, Table 3) [%] | percent inhibition of AR ([2]; 500.0 nM, Table 3) [%] | percent inhibition of AR ([2]; 1500.0 nM, Table 3) [%] | IC50 ([2]; Table 3) [nM] | further results
1 | 549332 (kG*k[5mC]*kG*d[5mC]*dT*d[5mC]*dT*dG*dA*d[5mC]*dA*dG*d[5mC]*k[5mC]*kT*k[5mC]; antisense) [compound 549332] | 84 | 35 | 57 | 79 | 79 | 104 | – | – | – | – | – | –
2 | 549334 (k[5mC]*kA*k[5mC]*d[5mC]*dT*dG*d[5mC]*dG*dG*dG*dA*dA*dG*k[5mC]*kT*k[5mC]; antisense) [compound 549334] | 83 | 29 | 46 | 63 | 72 | 253 | – | – | – | – | – | –
3 | 549338 (kG*kG*k[5mC]*dT*dG*dT*dG*dA*dT*dG*dA*dT*dG*k[5mC]*kG*kG; antisense) [compound 549338] | 83 | 32 | 47 | 67 | 78 | 154 | – | – | – | – | – | –
4 | 549345 (kT*k[5mC]*kT*dG*dG*dA*dA*d[5mC]*dA*dG*dA*dT*dT*k[5mC]*kT*kG; antisense) [compound 549345] | 82 | – | – | – | – | – | – | – | – | – | – | –
5 | 549347 (k[5mC]*kT*kT*d[5mC]*dG*d[5mC]*dG*d[5mC]*dA*d[5mC]*dG*d[5mC]*dT*k[5mC]*kT*kG; antisense) [compound 549347] | 84 | 15 | 37 | 62 | 71 | 357 | – | – | – | – | – | –
6 | 549358 (kA*kT*kG*dG*dT*dG*d[5mC]*dT*dG*dG*d[5mC]*d[5mC]*dT*k[5mC]*kG*k[5mC]; antisense) [compound 549358] | 91 | – | – | – | – | – | 29 | 63 | 85 | 95 | 141 | –
7 | 549360 (kG*kG*kT*d[5mC]*dG*dA*dA*dG*dT*dG*d[5mC]*d[5mC]*d[5mC]*k[5mC]*k[5mC]*kT; antisense) [compound 549360] | 89 | – | – | – | – | – | 44 | 58 | 79 | 83 | 116 | –
8 | 549361 (kG*kA*k[5mC]*dA*d[5mC]*d[5mC]*dG*dA*d[5mC]*dA*d[5mC]*dT*dG*k[5mC]*k[5mC]*kT; antisense) [compound 549361] | 84 | – | – | – | – | – | 12 | 30 | 52 | 66 | 525 | –
9 | 549362 (k[5mC]*k[5mC]*k[5mC]*dG*dA*dA*dG*d[5mC]*dT*dG*dT*dT*d[5mC]*k[5mC]*k[5mC]*k[5mC]; antisense) [compound 549362] | 85 | – | – | – | – | – | 10 | 23 | 57 | 74 | 447 | –
10 | 549366 (k[5mC]*kT*kT*dG*d[5mC]*d[5mC]*dT*dG*d[5mC]*dG*d[5mC]*dT*dG*kT*k[5mC]*kG; antisense) [compound 549366] | 84 | 44 | 58 | 72 | 91 | 129 | – | – | – | – | – | –
11 | 549371 (kG*kT*kT*dG*dT*dA*dG*dT*dA*dG*dT*d[5mC]*dG*k[5mC]*kG*kA; antisense) [compound 549371] | 93 | – | – | – | – | – | 30 | 52 | 83 | 88 | 148 | –
12 | 549374 (kG*k[5mC]*kG*d[5mC]*dT*dG*d[5mC]*d[5mC]*dG*dT*dA*dG*dT*k[5mC]*k[5mC]*kA; antisense) [compound 549374] | 93 | – | – | – | – | – | 40 | 59 | 83 | 92 | 108 | –
13 | 549386 (kG*k[5mC]*kT*dT*d[5mC]*dA*dT*d[5mC]*dT*d[5mC]*d[5mC]*dA*d[5mC]*kA*kG*kA; antisense) [compound 549386] | 77 | – | – | – | – | – | – | – | – | – | – | –
14 | 569214 (antisense kG*kG*kT*dT*dG*dA*dT*dT*dT*dA*dA*dT*kG*kG*kT*eT) [compound 569214] | – | – | – | – | – | – | – | – | – | – | – | percent inhibition of AR ([2]; 62.5 nM, Table 12): 20%; percent inhibition of AR ([2]; 125.0 nM, Table 12): 26%; percent inhibition of AR ([2]; 500.0 nM, Table 12): 62%; percent inhibition of AR ([2]; 1000.0 nM, Table 12): 76%; IC50 ([2]; Table 12): 265 nM
